Test results published in PubChem BioAssay AID634 (Vanderbilt High Throughput Screening Facility, 2007).
Active and inactive are the calls of the source. How the calls were made is not given here.

What follows are molecules tested against Voltage-gated potassium channel subunit beta-2 (Rattus norvegicus) (UniProt P62483) (assay: KvBeta positive modulator confirmation, biochemical (AID 634)). Details: Rat Kvbeta2 enzymatic assay, slope read-out; stronger effect = lower value.
Chain of Voltage-gated potassium channel subunit beta-2 (Rattus norvegicus) (P62483 whole entry, looked up): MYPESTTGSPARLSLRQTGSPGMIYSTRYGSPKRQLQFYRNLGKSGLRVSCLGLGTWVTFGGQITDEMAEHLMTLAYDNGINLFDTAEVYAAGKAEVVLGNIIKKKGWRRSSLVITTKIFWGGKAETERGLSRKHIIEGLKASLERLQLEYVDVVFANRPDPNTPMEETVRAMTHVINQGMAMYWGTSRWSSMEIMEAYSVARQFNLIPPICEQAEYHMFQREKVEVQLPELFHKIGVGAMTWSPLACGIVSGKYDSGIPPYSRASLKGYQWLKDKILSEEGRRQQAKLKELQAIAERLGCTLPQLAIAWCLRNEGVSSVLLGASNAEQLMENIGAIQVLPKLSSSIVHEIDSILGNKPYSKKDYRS
For `CC(O)CNc1nc2c(c(=O)n(C)c(=O)n2C)n1CCc1ccccc1` (configuration not stated), the slope was 0.0661 (inactive). For `NS(=O)(=O)c1cc2c(cc1Cl)NC=NS2(=O)=O`, the slope was 0.0676 (inactive). In the case of `CCOc1ccccc1Nc1nc2ccccc2[nH]1`, the slope is reported as 0.0352 (inactive). With `C=CCn1c(SCC(=O)NCC2CCCO2)nc2scc(-c3ccco3)c2c1=O` (configuration not stated) the slope was 0.0642 (inactive). `O=C(C1=C(O)C(=O)N(CCCN2CCOCC2)C1c1ccccn1)c1cc2ccccc2o1` (configuration not stated) was tested, and the slope was 0.134 (inactive). `COc1cccc(Oc2ccc(N)cc2)c1` was tested, and the slope was 0.062 (inactive). `CN1C(=S)SC(C)(NO)C1(C)C` (configuration not stated) was tested, and the slope was -0.536. In the case of `CCOC(=O)C1=C(N)OC(C)=C(C(=O)OCCOC)C12C(=O)Nc1ccccc12` (configuration not stated), the slope is reported as 0.0877 (inactive). For `O=C(NCCC1=CCCCC1)N[C@@H](Cc1ccccc1)C(=O)O`, the slope was 0.0842 (inactive). For `CCn1cc(C(=O)Nc2cc3c(cc2NC(C)=O)OCCO3)c(=O)c2ccc(C)nc21`, the slope was 0.112 (inactive). For `CC(=O)Oc1ccc2c(C)cc(=O)[nH]c2c1`, the slope was 0.0957 (inactive). In the case of `CCN(CC)CCCn1c(=S)[nH]c2cc(Cl)ccc2c1=O`, the slope is reported as 0.133 (inactive). With `CCCCCC#CCC#CCC#CCC#CCCCC(=O)O` the slope was -0.0283 (inactive). With `Cc1ccc2c(c1)[C@@H]1CN(C)CC[C@@H]1N2C(=O)Nc1cccc(C(F)(F)F)c1` the slope was -0.0275 (inactive). With `CCCCOc1ccc(-c2nnn(C(C)(C)C(=O)OC)n2)cc1` the slope was 0.0535 (inactive). With `Cc1ccc(N2C(=O)C3ON(c4ccccc4)C(c4ccncc4)C3C2=O)cc1` (configuration not stated) the slope was 0.0514 (inactive). In the case of `O=c1c2ccccc2[se]n1-c1ccccc1`, the slope is reported as -0.798. In the case of `CCOC(=O)CNC(=O)Nc1ccccc1C(=O)OC`, the slope is reported as 0.092 (inactive). `O=C(NCc1cccs1)C(Cc1ccccc1)NS(=O)(=O)c1cccs1` (configuration not stated) was tested, and the slope was 0.0568 (inactive). For `CC(c1ccco1)N(C(=O)c1ccc(S(=O)(=O)N2CCCCC2)cc1)c1ccccn1` (configuration not stated), the slope was 0.0766 (inactive). `COc1ccccc1C1/C(=C(/O)c2ccc(OC(C)C)cc2)C(=O)C(=O)N1c1cc(C)on1` (configuration not stated) was tested, and the slope was 0.0306 (inactive). With `Cn1c(SCC(=O)Nc2ccc3c(c2)oc2ccccc23)nnc1-c1ccccc1` the slope was 0.119 (inactive).
